How the values were obtained:
[1] = test system: Echinochloa oryzoides (Ard.) Fritsch.; test: Preemergence weed control under flooded paddy conditions, ECHORC (Watergrass (Calif.)); type: in vivo; conditions: flooded paddy, rated three to four weeks after treatment; for herbicidal effect rating, ECHORC: preemergence weeds; for ECHORC herbicidal rating / ECHORC herbicidal effect rating: preemergence; for herbicidal effect rating, ECHORC: meaning of each grade not given here
Cyperus iria = test: Preemergence weed control under flooded paddy conditions, CYPIR (Rice Flatsedge); type: in vivo; conditions: flooded paddy, rated three to four weeks after treatment; for herbicidal effect rating, CYPIR: preemergence weeds; for CYPIR herbicidal rating / CYPIR herbicidal effect rating: preemergence; for herbicidal effect rating, CYPIR: meaning of each grade not given here
[2] = test system: Monochoria vaginalis, Presl.; test: Preemergence weed control under flooded paddy conditions, MOOVA (Monochoria); type: in vivo; conditions: flooded paddy, rated three to four weeks after treatment; for herbicidal effect rating, MOOVA: preemergence weeds; for MOOVA herbicidal rating / MOOVA herbicidal effect rating: preemergence; for herbicidal effect rating, MOOVA: meaning of each grade not given here
Sagittaria pygmaea, L. = test: Preemergence weed control under flooded paddy conditions, SAGPY (Arrowhead (Pygmaea)); type: in vivo; conditions: flooded paddy, rated three to four weeks after treatment; for herbicidal effect rating, SAGPY: preemergence weeds; for SAGPY herbicidal rating / SAGPY herbicidal effect rating: preemergence; for herbicidal effect rating, SAGPY: meaning of each grade not given here
[3] = test system: Oryza sativa, (L.) Tebonnet; test: Rice tolerance to post-transplant applications under flooded paddy conditions (Example 187), ORYSAT (Rice, Tebonnet); conditions: rated three to four weeks after treatment

Cn1c(C(F)(F)F)cc(=O)n(-c2ccc3snc(CSCC(=O)NS(C)(=O)=O)c3c2)c1=O [Example 297, Acetamide, 2-{{{5-[3,6-dihydro-3-methyl-2,6-dioxo-4-(trifluoromethyl)-1(2H)-pyrimidinyl]-1,2-benzisothiazol-3-yl}methyl}thio}-N-(methylsulfonyl)-]
herbicidal effect rating, ECHORC ([1]; Rate 0.0320 kg/ha): 0.0
herbicidal effect rating, ECHORC ([1]; Rate 0.0620 kg/ha): 0.0
herbicidal effect rating, ECHORC ([1]; Rate 0.1250 kg/ha): 3.0
herbicidal effect rating, ECHORC ([1]; Rate 0.2500 kg/ha): 4.0
herbicidal effect rating, CYPIR (Cyperus iria; Rate 0.0320 kg/ha): 4.0
herbicidal effect rating, CYPIR (Cyperus iria; Rate 0.0620 kg/ha): 5.0
herbicidal effect rating, CYPIR (Cyperus iria; Rate 0.1250 kg/ha): 7.0
herbicidal effect rating, CYPIR (Cyperus iria; Rate 0.2500 kg/ha): 9.0
herbicidal effect rating, MOOVA ([2]; Rate 0.0320 kg/ha): 9.0
herbicidal effect rating, MOOVA ([2]; Rate 0.0620 kg/ha): 9.0
herbicidal effect rating, MOOVA ([2]; Rate 0.1250 kg/ha): 9.0
herbicidal effect rating, MOOVA ([2]; Rate 0.2500 kg/ha): 9.0
herbicidal effect rating, SAGPY (Sagittaria pygmaea, L.; Rate 0.0320 kg/ha): 0.0
herbicidal effect rating, SAGPY (Sagittaria pygmaea, L.; Rate 0.0620 kg/ha): 0.0
herbicidal effect rating, SAGPY (Sagittaria pygmaea, L.; Rate 0.1250 kg/ha): 3.0
herbicidal effect rating, SAGPY (Sagittaria pygmaea, L.; Rate 0.2500 kg/ha): 9.0
herbicidal effect rating ORYSAT ([3]; Rate 0.0320 kg/ha): 0.0
herbicidal effect rating ORYSAT ([3]; Rate 0.0620 kg/ha): 0.0
herbicidal effect rating ORYSAT ([3]; Rate 0.1250 kg/ha): 0.0
herbicidal effect rating ORYSAT ([3]; Rate 0.2500 kg/ha): 2.0

Cn1c(C(F)(F)F)cc(=O)n(-c2cc3c(C(=O)NS(=O)(=O)Cc4ccccc4)nsc3cc2F)c1=O [Example 482, 1,2-Benzisothiazole-3-carboxamide, N-(benzylsulfonyl)-5-[3,6-dihydro-3-methyl-2,6-dioxo-4-(trifluoromethyl)-1(2H)-pyrimidinyl]-6-fluoro-]
ECHORC herbicidal rating ([1]; 0.0320 kg/ha): 4.0
ECHORC herbicidal rating ([1]; 0.0620 kg/ha): 7.0
ECHORC herbicidal rating ([1]; 0.1250 kg/ha): 9.0
ECHORC herbicidal rating ([1]; 0.2500 kg/ha): 9.0
CYPIR herbicidal rating (Cyperus iria; 0.0320 kg/ha): 0.0
CYPIR herbicidal rating (Cyperus iria; 0.0620 kg/ha): 0.0
CYPIR herbicidal rating (Cyperus iria; 0.1250 kg/ha): 0.0
CYPIR herbicidal rating (Cyperus iria; 0.2500 kg/ha): 6.0
MOOVA herbicidal rating ([2]; 0.0320 kg/ha): 4.0
MOOVA herbicidal rating ([2]; 0.0620 kg/ha): 5.0
MOOVA herbicidal rating ([2]; 0.1250 kg/ha): 6.0
MOOVA herbicidal rating ([2]; 0.2500 kg/ha): 7.0
SAGPY herbicidal rating (Sagittaria pygmaea, L.; 0.0320 kg/ha): 3.0
SAGPY herbicidal rating (Sagittaria pygmaea, L.; 0.0620 kg/ha): 4.0
SAGPY herbicidal rating (Sagittaria pygmaea, L.; 0.1250 kg/ha): 5.0
SAGPY herbicidal rating (Sagittaria pygmaea, L.; 0.2500 kg/ha): 7.0
ORYSAT herbicidal rating (rice tolerance) ([3]; 0.0320 kg/ha): 0.0
ORYSAT herbicidal rating (rice tolerance) ([3]; 0.0620 kg/ha): 2.0
ORYSAT herbicidal rating (rice tolerance) ([3]; 0.1250 kg/ha): 6.0
ORYSAT herbicidal rating (rice tolerance) ([3]; 0.2500 kg/ha): 7.0

Cn1c(C(F)(F)F)cc(=O)n(-c2ccc3snc(COCC(=O)NS(C)(=O)=O)c3c2)c1=O [Example 294, Acetamide, 2-{{5-[3,6-dihydro-3-methyl-2,6-dioxo-4-(trifluoromethyl)-1(2H)-pyrimidinyl]-1,2-benzisothiazol-3-yl}methoxy}-N-(methylsulfonyl)-]
ECHORC herbicidal effect rating ([1]; Rate 0.0320 kg/ha): 0.0
ECHORC herbicidal effect rating ([1]; Rate 0.0620 kg/ha): 0.0
ECHORC herbicidal effect rating ([1]; Rate 0.1250 kg/ha): 0.0
ECHORC herbicidal effect rating ([1]; Rate 0.2500 kg/ha): 0.0
CYPIR herbicidal effect rating (Cyperus iria; Rate 0.0320 kg/ha): 0.0
CYPIR herbicidal effect rating (Cyperus iria; Rate 0.0620 kg/ha): 0.0
CYPIR herbicidal effect rating (Cyperus iria; Rate 0.1250 kg/ha): 3.0
CYPIR herbicidal effect rating (Cyperus iria; Rate 0.2500 kg/ha): 9.0
MOOVA herbicidal effect rating ([2]; Rate 0.0320 kg/ha): 9.0
MOOVA herbicidal effect rating ([2]; Rate 0.0620 kg/ha): 9.0
MOOVA herbicidal effect rating ([2]; Rate 0.1250 kg/ha): 9.0
MOOVA herbicidal effect rating ([2]; Rate 0.2500 kg/ha): 9.0
SAGPY herbicidal effect rating (Sagittaria pygmaea, L.; Rate 0.0320 kg/ha): 0.0
SAGPY herbicidal effect rating (Sagittaria pygmaea, L.; Rate 0.0620 kg/ha): 0.0
SAGPY herbicidal effect rating (Sagittaria pygmaea, L.; Rate 0.1250 kg/ha): 0.0
SAGPY herbicidal effect rating (Sagittaria pygmaea, L.; Rate 0.2500 kg/ha): 0.0
ORYSAT herbicidal effect rating ([3]; Rate 0.0320 kg/ha): 0.0
ORYSAT herbicidal effect rating ([3]; Rate 0.0620 kg/ha): 0.0
ORYSAT herbicidal effect rating ([3]; Rate 0.1250 kg/ha): 0.0
ORYSAT herbicidal effect rating ([3]; Rate 0.2500 kg/ha): 0.0

CNC.Cn1c(C(F)(F)F)cc(=O)n(-c2ccc3snc(COCC(=O)NS(C)(=O)=O)c3c2)c1=O [Example 295, Acetamide, 2-{{5-[3,6-dihydro-3-methyl-2,6-dioxo-4-(trifluoromethyl)-1(2H)-pyrimidinyl]-1,2-benzisothiazol-3-yl}methoxy}-N-(methylsulfonyl)-, dimethylamine salt]
ECHORC herbicidal effect rating ([1]; Rate 0.0620 kg/ha): 0.0
ECHORC herbicidal effect rating ([1]; Rate 0.1250 kg/ha): 0.0
ECHORC herbicidal effect rating ([1]; Rate 0.2500 kg/ha): 0.0
CYPIR herbicidal effect rating (Cyperus iria; Rate 0.0620 kg/ha): 0.0
CYPIR herbicidal effect rating (Cyperus iria; Rate 0.1250 kg/ha): 9.0
CYPIR herbicidal effect rating (Cyperus iria; Rate 0.2500 kg/ha): 9.0
MOOVA herbicidal effect rating ([2]; Rate 0.0620 kg/ha): 0.0
MOOVA herbicidal effect rating ([2]; Rate 0.1250 kg/ha): 9.0
MOOVA herbicidal effect rating ([2]; Rate 0.2500 kg/ha): 9.0
SAGPY herbicidal effect rating (Sagittaria pygmaea, L.; Rate 0.0620 kg/ha): 0.0
SAGPY herbicidal effect rating (Sagittaria pygmaea, L.; Rate 0.1250 kg/ha): 0.0
SAGPY herbicidal effect rating (Sagittaria pygmaea, L.; Rate 0.2500 kg/ha): 6.0
ORYSAT herbicidal effect rating ([3]; Rate 0.0620 kg/ha): 0.0
ORYSAT herbicidal effect rating ([3]; Rate 0.1250 kg/ha): 0.0
ORYSAT herbicidal effect rating ([3]; Rate 0.2500 kg/ha): 0.0

Cn1c(C(F)(F)F)cc(=O)n(-c2ccc3snc(C(=O)Oc4ccc(F)cc4)c3c2)c1=O [Example 320, 1,2-Benzisothiazole-3-carboxylic acid, 5-[3,6-dihydro-3-methyl-2,6-dioxo-4-(trifluoromethyl)-1(2H)-pyrimidinyl]-, p-fluorophenyl ester]
herbicidal effect rating, ECHORC ([1]; Rate 0.0320 kg/ha): 0.0
herbicidal effect rating, ECHORC ([1]; Rate 0.0620 kg/ha): 0.0
herbicidal effect rating, ECHORC ([1]; Rate 0.1250 kg/ha): 0.0
herbicidal effect rating, ECHORC ([1]; Rate 0.2500 kg/ha): 2.5
herbicidal effect rating, CYPIR (Cyperus iria; Rate 0.0320 kg/ha): 0.0
herbicidal effect rating, CYPIR (Cyperus iria; Rate 0.0620 kg/ha): 2.0
herbicidal effect rating, CYPIR (Cyperus iria; Rate 0.1250 kg/ha): 5.5
herbicidal effect rating, CYPIR (Cyperus iria; Rate 0.2500 kg/ha): 8.0
herbicidal effect rating, MOOVA ([2]; Rate 0.0320 kg/ha): 0.0
herbicidal effect rating, MOOVA ([2]; Rate 0.0620 kg/ha): 0.0
herbicidal effect rating, MOOVA ([2]; Rate 0.1250 kg/ha): 3.0
herbicidal effect rating, MOOVA ([2]; Rate 0.2500 kg/ha): 9.0
herbicidal effect rating, SAGPY (Sagittaria pygmaea, L.; Rate 0.0320 kg/ha): 1.0
herbicidal effect rating, SAGPY (Sagittaria pygmaea, L.; Rate 0.0620 kg/ha): 2.5
herbicidal effect rating, SAGPY (Sagittaria pygmaea, L.; Rate 0.1250 kg/ha): 2.5
herbicidal effect rating, SAGPY (Sagittaria pygmaea, L.; Rate 0.2500 kg/ha): 5.0
herbicidal effect rating ORYSAT ([3]; Rate 0.0320 kg/ha): 1.5
herbicidal effect rating ORYSAT ([3]; Rate 0.0620 kg/ha): 2.0
herbicidal effect rating ORYSAT ([3]; Rate 0.1250 kg/ha): 2.0
herbicidal effect rating ORYSAT ([3]; Rate 0.2500 kg/ha): 2.5

Cn1c(C(F)(F)F)cc(=O)n(-c2ccc3snc(C(Cl)Br)c3c2)c1=O (stereo not drawn) [Example 300, 2,4(1H,3H)-Pyrimidinedione, 3-[3-(bromochloromethyl)-1,2-benzisothiazol-5-yl]-1-methyl-6-(trifluoromethyl)-]
herbicidal effect rating, ECHORC ([1]; Rate 0.0320 kg/ha): 3.0
herbicidal effect rating, ECHORC ([1]; Rate 0.0620 kg/ha): 6.0
herbicidal effect rating, ECHORC ([1]; Rate 0.1250 kg/ha): 7.0
herbicidal effect rating, ECHORC ([1]; Rate 0.2500 kg/ha): 9.0
herbicidal effect rating, CYPIR (Cyperus iria; Rate 0.0320 kg/ha): 3.0
herbicidal effect rating, CYPIR (Cyperus iria; Rate 0.0620 kg/ha): 6.0
herbicidal effect rating, CYPIR (Cyperus iria; Rate 0.1250 kg/ha): 9.0
herbicidal effect rating, CYPIR (Cyperus iria; Rate 0.2500 kg/ha): 9.0
herbicidal effect rating, MOOVA ([2]; Rate 0.0320 kg/ha): 9.0
herbicidal effect rating, MOOVA ([2]; Rate 0.0620 kg/ha): 9.0
herbicidal effect rating, MOOVA ([2]; Rate 0.1250 kg/ha): 9.0
herbicidal effect rating, MOOVA ([2]; Rate 0.2500 kg/ha): 9.0
herbicidal effect rating, SAGPY (Sagittaria pygmaea, L.; Rate 0.0320 kg/ha): 2.0
herbicidal effect rating, SAGPY (Sagittaria pygmaea, L.; Rate 0.0620 kg/ha): 5.0
herbicidal effect rating, SAGPY (Sagittaria pygmaea, L.; Rate 0.1250 kg/ha): 6.0
herbicidal effect rating, SAGPY (Sagittaria pygmaea, L.; Rate 0.2500 kg/ha): 7.0
herbicidal effect rating ORYSAT ([3]; Rate 0.0320 kg/ha): 2.0
herbicidal effect rating ORYSAT ([3]; Rate 0.0620 kg/ha): 4.0
herbicidal effect rating ORYSAT ([3]; Rate 0.1250 kg/ha): 4.0
herbicidal effect rating ORYSAT ([3]; Rate 0.2500 kg/ha): 5.0

CNC.Cn1c(C(F)(F)F)cc(=O)n(-c2ccc3snc(COCC(=O)O)c3c2)c1=O [Example 296, Acetic acid, {{5-[3,6-dihydro-3-methyl-2,6-dioxo-4-(trifluoromethyl)-1(2H)-pyrimidinyl]-1,2-benzisothiazol-3-yl}methoxy}-, dimethylamine salt]
ECHORC herbicidal effect rating ([1]; Rate 0.0320 kg/ha): 0.0
ECHORC herbicidal effect rating ([1]; Rate 0.0620 kg/ha): 0.0
ECHORC herbicidal effect rating ([1]; Rate 0.1250 kg/ha): 2.0
ECHORC herbicidal effect rating ([1]; Rate 0.2500 kg/ha): 4.0
CYPIR herbicidal effect rating (Cyperus iria; Rate 0.0320 kg/ha): 6.0
CYPIR herbicidal effect rating (Cyperus iria; Rate 0.0620 kg/ha): 7.0
CYPIR herbicidal effect rating (Cyperus iria; Rate 0.1250 kg/ha): 7.0
CYPIR herbicidal effect rating (Cyperus iria; Rate 0.2500 kg/ha): 7.0
MOOVA herbicidal effect rating ([2]; Rate 0.0320 kg/ha): 9.0
MOOVA herbicidal effect rating ([2]; Rate 0.0620 kg/ha): 9.0
MOOVA herbicidal effect rating ([2]; Rate 0.1250 kg/ha): 9.0
MOOVA herbicidal effect rating ([2]; Rate 0.2500 kg/ha): 9.0
SAGPY herbicidal effect rating (Sagittaria pygmaea, L.; Rate 0.0320 kg/ha): 0.0
SAGPY herbicidal effect rating (Sagittaria pygmaea, L.; Rate 0.0620 kg/ha): 0.0
SAGPY herbicidal effect rating (Sagittaria pygmaea, L.; Rate 0.1250 kg/ha): 5.0
SAGPY herbicidal effect rating (Sagittaria pygmaea, L.; Rate 0.2500 kg/ha): 7.0
ORYSAT herbicidal effect rating ([3]; Rate 0.0320 kg/ha): 0.0
ORYSAT herbicidal effect rating ([3]; Rate 0.0620 kg/ha): 0.0
ORYSAT herbicidal effect rating ([3]; Rate 0.1250 kg/ha): 0.0
ORYSAT herbicidal effect rating ([3]; Rate 0.2500 kg/ha): 2.0
